Measurements taken from ChEMBL document CHEMBL1201862, “PubChem BioAssay data set” (2004).
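Each compound was tested at five concentrations against cells in 96-well plates for 48 hours. Here, GI50 denotes the concentration required for 50% inhibition of growth.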 The source made the active and inactive calls. Cut-off read from the data, not from the text of the source: active = GI50 up to about 1.1 µM and inactive = higher.

Key:
Experiment in all cases: DTP human tumour cell line panel, 48 h
Hs-578T = system: Hs-578T
HOP-62 = system: HOP-62
Malme-3M = system: Malme-3M
LOX IMVI = system: LOX IMVI
SF-268 = system: SF-268
A498 = system: A498
HT-29 = system: HT-29
NCI-H226 = system: NCI-H226
SR = system: SR
SF-295 = system: SF-295
HL-60 = system: HL-60
RPMI-8226 = system: RPMI-8226
COLO 205 = system: COLO 205
IGROV-1 = system: IGROV-1
HCT-116 = system: HCT-116
MDA-N = system: MDA-N
NCI-H23 = system: NCI-H23
NCI-H522 = system: NCI-H522
CCRF-CEM = system: CCRF-CEM
MOLT-4 = system: MOLT-4
OVCAR-3 = system: OVCAR-3
SK-MEL-5 = system: SK-MEL-5
BT-549 = system: BT-549
ACHN = system: ACHN
SN12C = system: SN12C
SNB-75 = system: SNB-75
SK-MEL-2 = system: SK-MEL-2
OVCAR-5 = system: OVCAR-5
EKVX = system: EKVX
TK-10 = system: TK-10
RXF 393 = system: RXF 393
UACC-62 = system: UACC-62
K562 = system: K562
A549 = system: A549
UO-31 = system: UO-31
HCC 2998 = system: HCC 2998
HCT-15 = system: HCT-15
NCI-H460 = system: NCI-H460
DU-145 = system: DU-145
M14 = system: M14
SNB-19 = system: SNB-19
786-0 = system: 786-0
OVCAR-8 = system: OVCAR-8
SW-620 = system: SW-620
PC-3 = system: PC-3
NCI/ADR-RES = system: NCI/ADR-RES
MDA-MB-435 = system: MDA-MB-435
CAKI-1 = system: CAKI-1
KM12 = system: KM12
SK-OV-3 = system: SK-OV-3
SK-MEL-28 = system: SK-MEL-28
MDA-MB-231 = system: MDA-MB-231
SF-539 = system: SF-539
U-251 = system: U-251

## C/C(=N/NC(=S)N1CCCC1)c1cccc(/C(C)=N\NC(=S)N2CCCC2)n1
Hs-578T
  GI50: 3.49 µM (inactive)
HOP-62
  GI50: 0.378 µM (active)
Malme-3M
  GI50: 1.84 µM (inactive)
LOX IMVI
  GI50: 0.0847 µM (active)
SF-268
  GI50: 1.68 µM (inactive)
A498
  GI50: 1.29 µM (inactive)
HT-29
  GI50: 0.0318 µM (active)
NCI-H226
  GI50: 1.62 µM (inactive)
SR
  GI50: 0.0944 µM (active)
SF-295
  GI50: 0.548 µM (active)
HL-60
  GI50: 0.453 µM (active)
RPMI-8226
  GI50: 2.06 µM (inactive)
COLO 205
  GI50: 0.785 µM (active)
IGROV-1
  GI50: 0.881 µM (active)
HCT-116
  GI50: 1.14 µM (inactive)
MDA-N
  GI50: 1.38 µM (inactive)
NCI-H23
  GI50: 1.88 µM (inactive)
NCI-H522
  GI50: 1.8 µM (inactive)
CCRF-CEM
  GI50: 0.0667 µM (active)
MOLT-4
  GI50: 0.0412 µM (active)
OVCAR-3
  GI50: 0.0973 µM (active)
SK-MEL-5
  GI50: 1.36 µM (inactive)
BT-549
  GI50: 2.23 µM (inactive)
ACHN
  GI50: 0.791 µM (active)
SN12C
  GI50: 1.14 µM (inactive)
SNB-75
  GI50: 1.21 µM (inactive)
SK-MEL-2
  GI50: 1.7 µM (inactive)
OVCAR-5
  GI50: 1.7 µM (inactive)
EKVX
  GI50: 0.152 µM (active)
TK-10
  GI50: 1.39 µM (inactive)
RXF 393
  GI50: 1.32 µM (inactive)
UACC-62
  GI50: 2.25 µM (inactive)
K562
  GI50: 0.0468 µM (active)
A549
  GI50: 1.44 µM (inactive)
UO-31
  GI50: 0.766 µM (active)
HCC 2998
  GI50: 1.21 µM (inactive)
HCT-15
  GI50: 0.492 µM
NCI-H460
  GI50: 1.06 µM (active)
DU-145
  GI50: 2.61 µM (inactive)
M14
  GI50: 1.25 µM (inactive)
SNB-19
  GI50: 2.57 µM (inactive)
786-0
  GI50: 1.37 µM (inactive)
OVCAR-8
  GI50: 1.11 µM (active)
SW-620
  GI50: 0.267 µM (active)
PC-3
  GI50: 0.076 µM (active)
NCI/ADR-RES
  GI50: 1.96 µM (inactive)
MDA-MB-435
  GI50: 1.43 µM (inactive)
CAKI-1
  GI50: 1.28 µM (inactive)
KM12
  GI50: 1.22 µM (inactive)
SK-OV-3
  GI50: 1.46 µM (inactive)
SK-MEL-28
  GI50: 1.97 µM (inactive)
MDA-MB-231
  GI50: 0.046 µM (active)
SF-539
  GI50: 1.36 µM (inactive)
U-251
  GI50: 1.5 µM (inactive)
